For 49 molecules, inhibition results are on record in ChEMBL document CHEMBL5606460, “ASAP - DENV-2 NS2B-NS3 protease fluorescence single point” (2024).

The assay deals with Genome polyprotein (dengue virus type 2) (UniProt P29990).
[1] abbreviates: Thailand/16681/1984, Concentration 100.0 uM, Number of replicates 1.0.
Setting [2] is: Thailand/16681/1984, Concentration 200.0 uM, Number of replicates 1.0.
Where [3] appears, read: Thailand/16681/1984, Concentration 50.0 uM, Number of replicates 1.0.
[4] abbreviates: Thailand/16681/1984, Concentration 150.0 uM, Number of replicates 1.0.

As a reminder, the inhibition is the change of the read-out against control, counted positive when it falls. For the molecule `FC(F)(F)c1nnc(COc2cncnc2)s1`, the inhibition runs as follows: under setting [1], -9.02%; under setting [2], -8.02%.

In the case of `Brc1cnn(C2CCN(Cc3csnn3)CC2)c1`, the inhibition by setting is: under setting [3], -3.22%; under setting [1], 5.64%; under setting [2], 5.63%.

Turning to `c1ccc2nc(SCc3cn4ccccc4n3)cnc2c1`, the inhibition under setting [3] is -5.61%, the inhibition under setting [1] amounted to 10.2%, the inhibition under setting [4] amounted to 7.18% and the inhibition under setting [2] stood at 30.9%.

As to `O=C(O)c1sc2cccnc2c1Br`, the inhibition under setting [3] was -8.71%, the inhibition under setting [1] is 12% and the inhibition under setting [2] turned out to be 2.09%.

Turning to `[O-][S@@+](Cc1ncccn1)c1ncccc1Br`, the inhibition is, setting by setting: under setting [3], -6.39%; under setting [1], 2.18%; under setting [4], -5.36%; under setting [2], -0.101%.

Regarding `COc1ccc2c(O)nn(S(=O)(=O)c3ccc(C(=O)O)cc3)c2c1`, the inhibition under setting [1] amounted to 5.93% and the inhibition under setting [2] is -6.38%.

With `O=c1ccn(Cc2cc(=O)n3ccccc3n2)c2ccsc12`, the inhibition by setting is: under setting [3], -1.76%; under setting [1], 3.86%; under setting [4], -8.57%; under setting [2], 4.39%.

As to `CCSc1nnc(SCCn2nc3ccccn3c2=O)s1`, the inhibition is, setting by setting: under setting [1], 5.4%; under setting [2], 2.68%.

On to `N#Cc1csc(CSc2nnc(C(F)(F)F)s2)n1`, for which the inhibition is, setting by setting: under setting [1], -9.01%; under setting [4], -4.46%.

On to `C[S@@+]([O-])c1nncn1Cc1ccc(Cl)s1`, for which the inhibition reads like this: under setting [1], 0.166%; under setting [2], -6.67%.

Regarding `N=C(N)NCCC[C@H](NC(=O)c1nccs1)C(=O)N[C@@H](CCCCN)C(=O)N[C@@H](C(N)=O)c1ccc(OCc2ccc(C(F)(F)F)cc2)cc1`, the inhibition runs as follows: (Thailand/16681/1984, Concentration 0.309 uM, Number of replicates 2.0, Standard deviation 3.0176373786002046 %) -3.85%; (Thailand/16681/1984, Concentration 0.926 uM, Number of replicates 2.0, Standard deviation 1.4110895026482932 %) 12.5%; (Thailand/16681/1984, Concentration 2.78 uM, Number of replicates 2.0, Standard deviation 1.2681150356250568 %) 36.5%; (Thailand/16681/1984, Concentration 8.33 uM, Number of replicates 2.0, Standard deviation 1.3787183923415196 %) 69.8%; (Thailand/16681/1984, Concentration 25.0 uM, Number of replicates 2.0, Standard deviation 1.0239143117161142 %) 89.5%.

For the molecule `COCc1nn(CC#Cc2ccc(Cl)cc2)c(=O)o1`, the inhibition was -7.03% under setting [3], 5.18% under setting [1], -4.23% under setting [4] and 2.77% under setting [2].

As to `Brc1cccc2cn(Cc3ncccn3)nc12`, the inhibition was -7.17% under setting [3], 6.27% under setting [1], -8.46% under setting [4] and 14.4% under setting [2].

With `c1ccc2[nH]c(CC3CCN(Cc4nccs4)CC3)nc2c1`, the inhibition is, setting by setting: under setting [1], -1.22%; under setting [2], -8.35%.

As for `O=c1[nH]c(CSc2ccccc2Cl)nc2ccsc12`, the inhibition by setting is: under setting [3], -5.28%; under setting [1], 18%; under setting [4], -7.62%; under setting [2], 26%.

As to `O=c1c2ccccc2ncn1CCCn1cnc2ccccc2c1=O`, the inhibition worked out at 4.08% under setting [1] and 1.74% under setting [2].

As to `c1csc(-c2nnc(Sc3ncnc4sccc34)o2)c1`, the inhibition under setting [3] was -7.64%, the inhibition under setting [1] came out at 5.5%, the inhibition under setting [4] amounted to 1.07% and the inhibition under setting [2] amounted to 9.38%.

Turning to `Cc1nnc(CSc2ncnc3sccc23)o1`, the inhibition reads like this: under setting [3], 8.23%; under setting [1], 30.9%; under setting [4], 40.5%; under setting [2], 55%.

On to `O=C(O)c1c(Br)sc2nnsc12`, for which the inhibition was -3.57% under setting [3], -5.37% under setting [1], -5.55% under setting [4] and 4.97% under setting [2].

For the molecule `N=C(N)NCCC[C@H](NC(=O)[C@H](Cc1ccc(CN)cc1)NC(=O)c1ccccc1)B(O)O`, the inhibition is, setting by setting: (Thailand/16681/1984, Concentration 0.103 uM, Number of replicates 2.0, Standard deviation 1.1552277516231042 %) 13.2%; (Thailand/16681/1984, Concentration 0.309 uM, Number of replicates 2.0, Standard deviation 1.403761128919186 %) 39.2%; (Thailand/16681/1984, Concentration 0.926 uM, Number of replicates 2.0, Standard deviation 1.9316423333512027 %) 73.2%; (Thailand/16681/1984, Concentration 2.78 uM, Number of replicates 2.0, Standard deviation 0.6346068363669732 %) 91.6%; (Thailand/16681/1984, Concentration 8.33 uM, Number of replicates 2.0, Standard deviation 0.06829499639101128 %) 97.4%; (Thailand/16681/1984, Concentration 25.0 uM, Number of replicates 2.0, Standard deviation 0.08100823932985672 %) 98.5%.

As for `c1cc2sccc2c(N2CCN(Cc3ccc4cn[nH]c4c3)CC2)n1`, the inhibition under setting [1] was determined as 8.61% and the inhibition under setting [2] is -0.953%.

On to `c1cc(-c2nnc(NCc3nnn[nH]3)s2)no1`, for which the inhibition runs as follows: under setting [1], -2.38%; under setting [2], -2.02%.

On to `N#Cc1ccc(OCCn2nnn(-c3ccccc3)c2=O)cc1`, for which the inhibition under setting [3] is -7.79%, the inhibition under setting [1] was -0.08%, the inhibition under setting [4] is -4.33% and the inhibition under setting [2] is -2.04%.

Consider `O=C(NCc1ccco1)c1csc(Br)c1`, for which the inhibition is -4.81% under setting [3], 6.83% under setting [1] and 0.818% under setting [2].

For `O=c1c2ccccc2nnn1CSc1nnc(-c2ccccc2)o1`, the inhibition came out at 2.98% under setting [3], 36.2% under setting [1], 31.6% under setting [4] and 52.5% under setting [2].

On to `[O-][S@@+](Cc1nc(-c2cccs2)no1)c1cccs1`, for which the inhibition stood at 0.907% under setting [3], 3.98% under setting [1] and 5.82% under setting [2].

Turning to `O=c1oc2cccnc2n1CC=Cc1ccccc1`, the inhibition is 18.7% under setting [1], -5.05% under setting [4] and 16.8% under setting [2].

Turning to `Cn1c(Sc2nc3ccccc3o2)nc2sccc2c1=O`, the inhibition by setting is: under setting [3], -1.81%; under setting [1], 6.37%; under setting [4], -7.45%; under setting [2], -0.609%.

On to `O=S(=O)(c1cccs1)N1CCN(CC=Cc2ccccc2)CC1`, for which the inhibition runs as follows: under setting [3], -7.46%; under setting [1], 21.8%; under setting [4], -8.18%; under setting [2], 2.78%.

As to `Brc1nc(Br)n(Cc2cscn2)n1`, the inhibition is -6.97% under setting [3], 2.39% under setting [1], -9.57% under setting [4] and -1.34% under setting [2].

`COC(=O)c1cc2scc(Br)c2[nH]1`: the inhibition is -5.44% under setting [3], 11.7% under setting [1] and 7.72% under setting [2].

`Cn1ncnc1Sc1nc(C2CCCC2)ns1`: the inhibition is -3.66% under setting [3], 5.27% under setting [1], -9.35% under setting [4] and 3.96% under setting [2].

Consider `Cc1nnnn1Cc1ncc(Br)s1`, for which, under setting [2], the inhibition was -5%.

As for `O=c1ccccn1-c1ncc(Br)cn1`, the inhibition under setting [3] is -2.83%, the inhibition under setting [1] was -4.93%, the inhibition under setting [4] is -7.63% and the inhibition under setting [2] was determined as 1.63%.

For `Nc1nc(S(=O)(=O)c2ccccc2)c(Cl)s1`, the inhibition under setting [1] is -1.35%.

`O=c1c2cccn2cnn1Cc1cnc(Cl)s1`: the inhibition runs as follows: under setting [3], -5.2%; under setting [1], 0.188%; under setting [4], -0.072%; under setting [2], 7.35%.

For the molecule `NC(=O)c1ccc(Cn2nnc(C=Cc3ccccc3)n2)cc1`, the inhibition reads like this: under setting [3], -4.9%; under setting [1], 8.5%; under setting [4], 4.33%; under setting [2], 12.7%.

`c1ccc(C2CCN(Cc3ccc4nccnc4c3)CC2)nc1`: the inhibition is -8.13% under setting [3], 3.52% under setting [1], -6.13% under setting [4] and -1.29% under setting [2].

In the case of `Cc1sc2nc(-c3cccs3)[nH]c(=O)c2c1C`, the inhibition runs as follows: under setting [3], -5.01%; under setting [1], 0.922%; under setting [2], -9.15%.

Take `c1nnc(SCCCSc2nncs2)s1`: the inhibition reads like this: under setting [3], -6.11%; under setting [1], -7.13%; under setting [4], -4.63%; under setting [2], -0.768%.

For the molecule `O=S1(=O)CCN(CC#Cc2ccc3sncc3c2)CC1`, the inhibition reads like this: under setting [1], -9.23%; under setting [2], 2.54%.

For `O=S(=O)(CCOc1ccccc1)c1nccs1`, the inhibition under setting [3] was -5.02% and the inhibition under setting [1] was -2.8%.

Turning to `FC(F)(F)c1nc(CNCc2cocn2)cs1`, the inhibition under setting [1] stood at 1.67%, the inhibition under setting [4] was -9.44% and the inhibition under setting [2] was -3.73%.

Turning to `Cc1nnsc1Cn1ccc(Br)n1`, the inhibition under setting [3] was -5.41%, the inhibition under setting [1] turned out to be 0.654%, the inhibition under setting [4] was -3.97% and the inhibition under setting [2] was -4.2%.

Consider `N#Cc1ccc(S(=O)(=O)CCn2nc(-c3ccco3)oc2=O)cc1`, for which the inhibition runs as follows: under setting [3], -4.79%; under setting [1], 5.55%; under setting [2], 2.14%.

Turning to `COc1nc(Cl)c(CSc2nc(C)co2)s1`, the inhibition is, setting by setting: under setting [1], 2.83%; under setting [4], -6.96%; under setting [2], 12.2%.

Take `Clc1snnc1CN1CCC(c2nc3ccccc3o2)CC1`: the inhibition under setting [3] was -8.6%, the inhibition under setting [1] was 2.94%, the inhibition under setting [4] is -7.28% and the inhibition under setting [2] turned out to be 8.81%.

Take `Brc1ccsc1CSc1cnn[nH]1`: the inhibition under setting [3] is -4.71%, the inhibition under setting [1] came out at 11.3% and the inhibition under setting [2] came to 11%.

As to `O=C(NCc1nccs1)c1sccc1Cl`, the inhibition runs as follows: under setting [3], 0.507%; under setting [1], 4.39%; under setting [4], -3.58%; under setting [2], -1.05%.
